From US20130210623A1, “PESTICIDAL MIXTURES INCLUDING ISOXAZOLINE DERIVATIVES” (SYNGENTA CROP PROTECTION LLC, priority 2010, published 2013)

Columns and labels:
[1] = system: Heliothis virescens (Tobacco Budworm); assay: Heliothis virescens egg/larval mortality on artificial diet, 24-well microtiter plate; format: in vivo; details: 4 days
Experimental: Heliothis virescens (Tobacco Budworm)
Eggs (0-24 h old) are placed in 24-well microtiter plate on artificial diet and treated with test solutions (DMSO) by pipetting. After an incubation period of 4 days, samples are checked for larval mortality.

[2] = system: Tetranychus urticae (Two-Spotted Spider Mite); assay: Tetranychus urticae mixed population mortality on sprayed bean leaf discs; format: in vivo
Excerpt: Tetranychus urticae (Two-Spotted Spider Mite)
Bean leaf discs on agar in 24-well microtiter plates are sprayed with test solutions (DMSO). After drying, the leaf discs are infested with mite populations of mixed ages. 8 days later, discs are checked for mixed population mortality.

CN/C(=N\[N+](=O)[O-])NCc1cnc(Cl)s1 [Clothianidin, clothianidin]
AVERAGE DEAD IN % Clothianidin ([1]; Table 4, Clothianidin alone 1.5 ppm AI): 0%
AVERAGE DEAD IN % Clothianidin ([1]; Table 4, Clothianidin alone 3 ppm AI): 0%
AVERAGE DEAD IN % Clothianidin ([1]; Table 4, Clothianidin alone 6 ppm AI): 25%
AVERAGE DEAD IN % Clothianidin ([1]; Table 4, Clothianidin alone 12 ppm AI): 50%
AVERAGE DEAD IN % Clothianidin ([1]; Table 4, Clothianidin alone 24 ppm AI): 85%
AVERAGE DEAD IN % Clothianidin ([2]; Table 8, Clothianidin alone 50 ppm AI, 8 days): 0%
AVERAGE DEAD IN % Clothianidin ([2]; Table 8, Clothianidin alone 100 ppm AI, 8 days): 0%
AVERAGE DEAD IN % Clothianidin ([2]; Table 8, Clothianidin alone 200 ppm AI, 8 days): 0%
AVERAGE DEAD IN % Clothianidin ([2]; Table 8, Clothianidin alone 400 ppm AI, 8 days): 0%
AVERAGE DEAD IN % Clothianidin ([2]; Table 8, Clothianidin alone 800 ppm AI, 8 days): 0%

CCOC(=O)OC1=C(c2cc(C)ccc2C)C(=O)N[C@]12CC[C@@H](OC)CC2 [Spirotetramat, spirotetramat]
AVERAGE DEAD IN % Spirotetramat ([1]; Table 3, Spirotetramat alone 25 ppm AI): 10%
AVERAGE DEAD IN % Spirotetramat ([1]; Table 3, Spirotetramat alone 50 ppm AI): 0%
AVERAGE DEAD IN % Spirotetramat ([1]; Table 3, Spirotetramat alone 100 ppm AI): 0%
AVERAGE DEAD IN % Spirotetramat ([1]; Table 3, Spirotetramat alone 200 ppm AI): 0%
AVERAGE DEAD IN % Spirotetramat ([1]; Table 3, Spirotetramat alone 400 ppm AI): 15%
AVERAGE DEAD IN % Spirotetramat ([1]; Table 3, Spirotetramat alone 800 ppm AI): 80%
AVERAGE DEAD IN % Spirotetramat ([2]; Table 7, Spirotetramat alone 12.5 ppm AI, 8 days): 75%
AVERAGE DEAD IN % Spirotetramat ([2]; Table 7, Spirotetramat alone 25 ppm AI, 8 days): 85%
AVERAGE DEAD IN % Spirotetramat ([2]; Table 7, Spirotetramat alone 50 ppm AI, 8 days): 90%
AVERAGE DEAD IN % Spirotetramat ([2]; Table 7, Spirotetramat alone 100 ppm AI, 8 days): 90%
AVERAGE DEAD IN % Spirotetramat ([2]; Table 7, Spirotetramat alone 200 ppm AI, 8 days): 90%

abamectin
AVERAGE DEAD IN % Abamectin ([1]; Table 1, Abamectin alone 0.1 ppm AI): 0%
AVERAGE DEAD IN % Abamectin ([1]; Table 1, Abamectin alone 0.2 ppm AI): 0%
AVERAGE DEAD IN % Abamectin ([1]; Table 1, Abamectin alone 0.4 ppm AI): 10%
AVERAGE DEAD IN % Abamectin ([1]; Table 1, Abamectin alone 0.8 ppm AI): 65%
AVERAGE DEAD IN % Abamectin ([1]; Table 1, Abamectin alone 1.6 ppm AI): 90%
AVERAGE DEAD IN % Abamectin ([1]; Table 1, Abamectin alone 3.2 ppm AI): 90%
AVERAGE DEAD IN % Abamectin ([2]; Table 5, Abamectin alone 0.0125 ppm AI, 8 days): 0%
AVERAGE DEAD IN % Abamectin ([2]; Table 5, Abamectin alone 0.025 ppm AI, 8 days): 25%
AVERAGE DEAD IN % Abamectin ([2]; Table 5, Abamectin alone 0.05 ppm AI, 8 days): 55%
AVERAGE DEAD IN % Abamectin ([2]; Table 5, Abamectin alone 0.1 ppm AI, 8 days): 55%
AVERAGE DEAD IN % Abamectin ([2]; Table 5, Abamectin alone 0.2 ppm AI, 8 days): 60%

CC1(C)[C@H](C(=O)O[C@H](C#N)c2cccc(Oc3ccccc3)c2)[C@@H]1/C=C(\Cl)C(F)(F)F (racemic) [Lambda Cyhalothrin, lambda-cyhalothrin]
AVERAGE DEAD IN % Lambda Cyhalothrin ([1]; Table 2, Lambda Cyhalothrin alone 0.0125 ppm AI): 0%
AVERAGE DEAD IN % Lambda Cyhalothrin ([1]; Table 2, Lambda Cyhalothrin alone 0.025 ppm AI): 0%
AVERAGE DEAD IN % Lambda Cyhalothrin ([1]; Table 2, Lambda Cyhalothrin alone 0.05 ppm AI): 0%
AVERAGE DEAD IN % Lambda Cyhalothrin ([1]; Table 2, Lambda Cyhalothrin alone 0.1 ppm AI): 50%
AVERAGE DEAD IN % Lambda Cyhalothrin ([1]; Table 2, Lambda Cyhalothrin alone 0.2 ppm AI): 80%
AVERAGE DEAD IN % Lambda Cyhalothrin ([1]; Table 2, Lambda Cyhalothrin alone 0.4 ppm AI): 90%
AVERAGE DEAD IN % Lambda Cyhalothrin ([2]; Table 6, Lambda Cyhalothrin alone 6.25 ppm AI, 8 days): 0%
AVERAGE DEAD IN % Lambda Cyhalothrin ([2]; Table 6, Lambda Cyhalothrin alone 12.5 ppm AI, 8 days): 50%
AVERAGE DEAD IN % Lambda Cyhalothrin ([2]; Table 6, Lambda Cyhalothrin alone 25 ppm AI, 8 days): 90%
AVERAGE DEAD IN % Lambda Cyhalothrin ([2]; Table 6, Lambda Cyhalothrin alone 50 ppm AI, 8 days): 85%

Cc1cc(C2=NO[C@@](c3cc(Cl)cc(Cl)c3)(C(F)(F)F)C2)ccc1C(=O)NCC(=O)NCC(F)(F)F [I-A2]
AVERAGE DEAD IN % COMPOUND I-A2 ([1]; Table 1, I-A2 alone 0.025 ppm AI): 0%
AVERAGE DEAD IN % COMPOUND I-A2 ([1]; Table 1, I-A2 alone 0.05 ppm AI): 0%
AVERAGE DEAD IN % COMPOUND I-A2 ([1]; Table 1, I-A2 alone 0.1 ppm AI): 5%
AVERAGE DEAD IN % COMPOUND I-A2 ([1]; Table 1, I-A2 alone 0.2 ppm AI): 75%
AVERAGE DEAD IN % COMPOUND I-A2 ([1]; Table 1, I-A2 alone 0.4 ppm AI): 94%
AVERAGE DEAD IN % COMPOUND I-A2 ([1]; Table 1, I-A2 alone 0.8 ppm AI): 99%
AVERAGE DEAD IN % COMPOUND I-A2 ([1]; Table 2, I-A2 alone 0.025 ppm AI): 0%
AVERAGE DEAD IN % COMPOUND I-A2 ([1]; Table 2, I-A2 alone 0.05 ppm AI): 0%
AVERAGE DEAD IN % COMPOUND I-A2 ([1]; Table 2, I-A2 alone 0.1 ppm AI): 5%
AVERAGE DEAD IN % COMPOUND I-A2 ([1]; Table 2, I-A2 alone 0.2 ppm AI): 75%
AVERAGE DEAD IN % COMPOUND I-A2 ([1]; Table 2, I-A2 alone 0.4 ppm AI): 94%
AVERAGE DEAD IN % COMPOUND I-A2 ([1]; Table 2, I-A2 alone 0.8 ppm AI): 99%
AVERAGE DEAD IN % COMPOUND I-A2 ([1]; Table 3, I-A2 alone 0.05 ppm AI): 0%
AVERAGE DEAD IN % COMPOUND I-A2 ([1]; Table 3, I-A2 alone 0.1 ppm AI): 0%
AVERAGE DEAD IN % COMPOUND I-A2 ([1]; Table 3, I-A2 alone 0.2 ppm AI): 73%
AVERAGE DEAD IN % COMPOUND I-A2 ([1]; Table 3, I-A2 alone 0.4 ppm AI): 89%
AVERAGE DEAD IN % COMPOUND I-A2 ([1]; Table 3, I-A2 alone 0.8 ppm AI): 98%
AVERAGE DEAD IN % COMPOUND I-A2 ([1]; Table 4, I-A2 alone 0.05 ppm AI): 0%
AVERAGE DEAD IN % COMPOUND I-A2 ([1]; Table 4, I-A2 alone 0.1 ppm AI): 0%
AVERAGE DEAD IN % COMPOUND I-A2 ([1]; Table 4, I-A2 alone 0.2 ppm AI): 73%
AVERAGE DEAD IN % COMPOUND I-A2 ([1]; Table 4, I-A2 alone 0.4 ppm AI): 89%
AVERAGE DEAD IN % COMPOUND I-A2 ([1]; Table 4, I-A2 alone 0.8 ppm AI): 98%
AVERAGE DEAD IN % COMPOUND I-A2 ([2]; Table 5, I-A2 alone 0.1 ppm AI, 8 days): 17%
AVERAGE DEAD IN % COMPOUND I-A2 ([2]; Table 5, I-A2 alone 0.2 ppm AI, 8 days): 83%
AVERAGE DEAD IN % COMPOUND I-A2 ([2]; Table 5, I-A2 alone 0.4 ppm AI, 8 days): 100%
AVERAGE DEAD IN % COMPOUND I-A2 ([2]; Table 6, I-A2 alone 0.1 ppm AI, 8 days): 17%
AVERAGE DEAD IN % COMPOUND I-A2 ([2]; Table 6, I-A2 alone 0.2 ppm AI, 8 days): 83%
AVERAGE DEAD IN % COMPOUND I-A2 ([2]; Table 6, I-A2 alone 0.8 ppm AI, 8 days): 100%
AVERAGE DEAD IN % COMPOUND I-A2 ([2]; Table 7, I-A2 alone 0.025 ppm AI, 0 * = 0% control assumed since control at the higher rate was also 0%): 0 * %
AVERAGE DEAD IN % COMPOUND I-A2 ([2]; Table 7, I-A2 alone 0.05 ppm AI, 0 * = 0% control assumed since control at the higher rate was also 0%): 0 * %
AVERAGE DEAD IN % COMPOUND I-A2 ([2]; Table 7, I-A2 alone 0.1 ppm AI, 8 days): 0%
AVERAGE DEAD IN % COMPOUND I-A2 ([2]; Table 7, I-A2 alone 0.2 ppm AI, 8 days): 85%
AVERAGE DEAD IN % COMPOUND I-A2 ([2]; Table 7, I-A2 alone 0.4 ppm AI, 8 days): 95%
AVERAGE DEAD IN % COMPOUND I-A2 ([2]; Table 8, I-A2 alone 0.1 ppm AI, 8 days): 0%
AVERAGE DEAD IN % COMPOUND I-A2 ([2]; Table 8, I-A2 alone 0.2 ppm AI, 8 days): 85%
AVERAGE DEAD IN % COMPOUND I-A2 ([2]; Table 8, I-A2 alone 0.4 ppm AI, 8 days): 95%
